# Where two headings read alike, the source gives them in different places.
# What was measured:
# [1] = tested on: Pseudomonas aeruginosa MB 5919; assay: Minimum inhibitory concentrations of sentinel antibiotics (strain quality control); format: cell-based; conditions: OprD+, efflux+, parental strain
# [2] = tested on: Pseudomonas aeruginosa MB 5890; assay: as above; format: cell-based; conditions: OprD+, efflux−, parental strain
# [3] = tested on: MB 5890 Trans pFlp-Vim2 plasmid; format: cell-based, Pseudomonas aeruginosa; conditions: OprD+, efflux−
# IMP-1 = IMP-1 (Serratia marcescens, UniProt P52699); format: biochemical; conditions: CCF2-FA substrate, 2 hours at 25° C.
# Chain of IMP-1 (P52699 whole entry, looked up, species assumed): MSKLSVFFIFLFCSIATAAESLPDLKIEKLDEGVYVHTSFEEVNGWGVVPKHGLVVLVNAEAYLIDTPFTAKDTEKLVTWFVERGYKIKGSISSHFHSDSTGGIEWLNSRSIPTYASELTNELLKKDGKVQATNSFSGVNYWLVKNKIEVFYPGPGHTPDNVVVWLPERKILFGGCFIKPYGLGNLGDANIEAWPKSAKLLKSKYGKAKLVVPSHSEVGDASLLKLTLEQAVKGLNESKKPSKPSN
# Description: (§1) Enzyme Activity: Determination of IC50
# (§2) The Class B enzyme activities were measured in the presence of the test inhibitor in a fluorescence assay against a commercially available substrate consisting of a cephalosporin core linking 7-hydroxycoumarin to fluorescein (CCF2-FA). […] In a 384-well microplate, the test inhibitor was incubated with the metallo-β-lactamase enzyme and the substrate for 2 hours at 25° C. […] The IC50 value was determined from semi-logarithmic plots of enzyme inhibition versus inhibitor concentration, with a curve generated using a 4-parameter fit.
# NDM-1 = NDM-1 (Klebsiella pneumoniae, UniProt C7C422); format: biochemical; conditions: CCF2-FA substrate, 2 hours at 25° C.
# Chain of NDM-1 (C7C422 whole entry, looked up, species assumed): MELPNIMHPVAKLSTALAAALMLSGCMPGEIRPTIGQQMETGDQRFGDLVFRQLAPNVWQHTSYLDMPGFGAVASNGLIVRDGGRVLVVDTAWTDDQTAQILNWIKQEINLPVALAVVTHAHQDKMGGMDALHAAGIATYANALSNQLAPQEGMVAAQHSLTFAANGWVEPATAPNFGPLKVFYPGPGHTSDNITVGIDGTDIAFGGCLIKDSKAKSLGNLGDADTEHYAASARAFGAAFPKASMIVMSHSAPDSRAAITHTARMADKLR
# Description: as §1, §2
# VIM-1 = VIM-1 (Pseudomonas aeruginosa (strain ATCC 15692 / DSM 22644 / CIP 104116 / JCM 14847 / LMG 12228 / 1C / PRS 101 / PAO1), UniProt A0A0F7KYQ8); format: biochemical; conditions: CCF2-FA substrate, 2 hours at 25° C.
# Description: as §1, §2
# [4] = tested on: Escherichia coli expressing NDM-1 (CLB30005, CLB30016); format: cell-based; conditions: with imipenem 1 μg/ml; 95% inhibition of bacterial growth
# In short: (§3)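 Growth read by absorbance after 22–24 h at 35 °C in CAMHB, with test compound alone or combined with 1 μg/ml imipenem. Inocula came from overnight 35 °C blood-agar colonies, set to a defined OD600 and diluted 1:100. Value is the inhibitor concentration giving synergy.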
# [5] = tested on: Pseudomonas aeruginosa PAO1 MB9798 (efflux+, IMP-1); conditions: for Efflux ratio: ratio MITC95 PA 9798/MITC95 PA 9799; for P. aeruginosa expressing IMP-1, efflux + (MB9798) MITC95: restores susceptibility to imipenem at 2 μg/mL in the presence of a class A
# In short: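 Isogenic PAO1 pair (efflux+ MB9798, efflux− MB9799, both IMP-1) tested by microbroth MIC with fixed imipenem and/or ceftazidime, usually at CLSI breakpoint, plus fixed class A/C inhibitor against AmpC. MBL inhibitor titrated; concentration restoring susceptibility recorded and fold difference between strains taken as efflux extent.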
# [6] = tested on: Pseudomonas aeruginosa PAO1 MB9799 (efflux-, IMP-1); format: cell-based; conditions: C, D serine β-lactamase inhibitor closely related to relebactam; for P. aeruginosa expressing IMP-1, efflux − (MB9799) MITC95: restores susceptibility to imipenem at 2 μg/mL in the presence of a class A, efflux − strain MB9799
# From the text: The strain background was Pseudomonas aeruginosa PAO1.
# The strain set was then used as a pair to determine the effect of metallo-β-lactamase inhibitors of Formula I on the MIC of imipenem and/or ceftazidime. A fixed concentration of antibiotic was included in standard microbroth MIC tests, usually at the CLSI (Clinical and Laboratory Standards Institute) breakpoint concentration. A fixed amount of a class A/C beta-lactamase inhibitor was also included to inhibit the resident Pseudomonas AmpC enzyme. A serial titration of the metallo-β-lactamase inhibitor was included and the concentration of metallo-β-lactamase inhibitor which restores susceptibility of the strain to the included antibiotic was recorded. That concentration of metallo-β-lactamase inhibitor was then compared between the two strains to determine the fold difference between the efflux + (MB9798) and efflux − (MB9799) strains. This was taken as an indication of the extent to which the MBLi is subject to efflux.
# [7] = tested on: MB 5919 Trans IMP1 plasmid (MB 9798); format: cell-based, Pseudomonas aeruginosa; conditions: OprD+, efflux+
# [8] = tested on: MB 5890 Trans IMP1 plasmid (MB 9799); format: cell-based, Pseudomonas aeruginosa; conditions: OprD+, efflux−
# [9] = tested on: MB 5919 Trans pFlp-Vim1 plasmid (MB 9861); format: cell-based, Pseudomonas aeruginosa; conditions: OprD+, efflux+
# [10] = tested on: MB 5890 Trans pFlp-Vim1 (MB9862); format: cell-based, Pseudomonas aeruginosa; conditions: OprD+, efflux−
# [11] = tested on: MB 5919 Trans pFlp-Vim2 plasmid; format: cell-based, Pseudomonas aeruginosa; conditions: OprD+, efflux+
# [12] = tested on: Klebsiella pneumoniae expressing VIM-1 (IHMA599644); format: cell-based; conditions: with imipenem 1 μg/ml; 95% inhibition of bacterial growth
# In short: as §3
# [13] = tested on: Serratia marcescens expressing IMP-1 (CL5741); format: cell-based; conditions: with imipenem 1 μg/ml; 95% inhibition of bacterial growth
# In short: as §3
# [14] = C, D serine β-lactamase inhibitor closely related to relebactam, efflux + strain MB9798
compound,measurement,setting,value
"CC(C)(O/N=C(\C(=O)N[C@@H]1C(=O)N2C(C(=O)[O-])=C(C[n+]3ccccc3)CS[C@H]12)c1csc(N)n1)C(=O)O [CAZ, ceftazidime]",MIC,[1],1 µg/mL
same,MIC,[2],0.5 µg/mL
same,MIC,[3],64 µg/mL
"Nc1nc2c(-c3ccc(S(=O)(=O)N4CCN(CCO)CC4)c(S(N)(=O)=O)c3-c3nnn[nH]3)cccc2s1.O=C(O)C(F)(F)F [Example 92, 4-((4-(2-aminobenzo[d]thiazol-4-yl)-2-sulfamoyl-3-(1H-tetrazol-5-yl)phenyl)sulfonyl)-1-(2-hydroxyethyl) piperazin-1-ium 2,2,2-trifluoroacetate]",IC50,IMP-1; fluorescence assay,1.17 nM
same,IC50,NDM-1; fluorescence assay,0.609 nM
same,IC50,VIM-1; fluorescence assay,1.41 nM
same,Escherichia coli expressing NDM-1 (CLB30016) MITC95,[4],12.5 µM
same,Efflux ratio,[5]; imipenem at 2 μg/mL,4.00
same,"P. aeruginosa expressing IMP-1, efflux + (MB9798) MITC95",[5]; [14],25 µM
same,"P. aeruginosa expressing IMP-1, efflux − (MB9799) MITC95",[6],6.25 µM
"NC[C@H](O)CNS(=O)(=O)c1ccc(-c2ccnc(N)c2)c(-c2nn[nH]n2)c1S(N)(=O)=O [Example 417, (S)-N^1-(3-amino-2-hydroxypropyl)-4-(2-aminopyridin-4-yl)-3-(2H-tetrazol-5-yl)benzene-1,2-disulfonamide]",IC50,IMP-1,1.28 nM
same,IC50,NDM-1,0.385 nM
same,Concentration of metallo-β-lactamase inhibitor which restores susceptibility of efflux + (MB9798) strain to imipenem,"[5]; imipenem at 2 μg/mL, in the presence of a class A, C, D serine β-lactamase inhibitor closely related to relebactam, efflux + strain MB9798",1.563
same,Concentration of metallo-β-lactamase inhibitor which restores susceptibility of efflux − (MB9799) strain to imipenem,"[6]; imipenem at 2 μg/mL, in the presence of a class A",0.7813
"C[C@@H](O)[C@H]1C(=O)N2C(C(=O)O)=C(SCCN=CN)C[C@H]12 [Imipenem, imipenem]",MIC,[1],4 µg/mL
same,MIC,[2],2 µg/mL
same,MIC,[7],64 µg/mL
same,MIC,[8],32 µg/mL
same,MIC,[9],>64 µg/mL
same,MIC,[10],64 µg/mL
same,MIC,[11],>64 µg/mL
same,MIC,[3],32 µg/mL
"C[C@@H](O)[C@H]1C(=O)N2C(C(=O)O)=C(S[C@@H]3CN[C@H](C(=O)N(C)C)C3)[C@H](C)[C@H]12 [Meropenem, meropenem]",MIC,[1],2 µg/mL
same,MIC,[2],0.5 µg/mL
same,MIC,[7],>64 µg/mL
same,MIC,[8],64 µg/mL
same,MIC,[9],>64 µg/mL
same,MIC,[10],64 µg/mL
same,MIC,[11],>64 µg/mL
same,MIC,[3],32 µg/mL
"CCN1CCN(C(=O)N[C@@H](C(=O)N[C@@H]2C(=O)N3[C@@H]2SC(C)(C)[C@@H]3C(=O)O)c2ccccc2)C(=O)C1=O [Pipercillin, piperacillin]",MIC,[1],2 µg/mL
same,MIC,[2],1 µg/mL
same,MIC,[7],4 µg/mL
same,MIC,[8],4 µg/mL
"(R)-4-(1-(2-aminoethyl)-1H-benzo[d][1,2,3]triazol-4-yl)-N1-(pyrrolidin-3-yl)-3-(2H-tetrazol-5-yl)benzene-1,2-disulfonamide yl)benzene-1,2-disulfonamide [Example 289]",IC50,IMP-1,1.22 nM
same,IC50,NDM-1,0.249 nM
same,IC50,VIM-1,0.104 nM
same,Escherichia coli (NDM-1) MITC95,[4],0.7813 µM
same,Klebsiella pneumoniae (VIM-1) MITC95,[12],1.563 µM
same,Serratia marcescens (IMP-1) MITC95,[13],1.563 µM
same,Efflux ratio,[5]; imipenem at 2 μg/mL,2.00
same,"P. aeruginosa expressing IMP-1, efflux + (MB9798) MITC95",[5]; [14],1.563 µM
same,"P. aeruginosa expressing IMP-1, efflux − (MB9799) MITC95",[6],0.7813 µM

# — US10544130B2, “Metallo-beta-lactamase inhibitors” (priority 2015, dated 2020)
